Measured values from ChEMBL document CHEMBL5465560, “Selectivity Literature for EUbOPEN Chemogenomic Library” (2024).

Key:
[1] = molecular target: Protein arginine N-methyltransferase 5 (Homo sapiens, UniProt O14744); assay: Selectivity interaction (Western blot assay (PRMT5 dependent SmB symmetric arginine dimethylation)) EUB0000236b PRMT5
[2] = molecular target: Protein arginine N-methyltransferase 6 (Homo sapiens, UniProt Q96LA8); assay: Selectivity interaction (Western blot assay (PRMT6 dependent H4R3 asymmetric arginine dimethylation)) EUB0000236b PRMT6
[3] = molecular target: Protein arginine N-methyltransferase 1 (Homo sapiens, UniProt Q99873); assay: Selectivity interaction (Western blot assay (PRMT1 dependent H4R3 asymmetric arginine dimethylation)) EUB0000236b PRMT1
[4] = molecular target: T1, Protein arginine N-methyltransferase 9 (Homo sapiens, UniProt Q6P2P2); assay: Selectivity interaction (Western blot assay (PRMT9 dependent SAP145 […] arginine dimethylation)) EUB0000236b PRMT9
T1 sequence (Q6P2P2 whole entry): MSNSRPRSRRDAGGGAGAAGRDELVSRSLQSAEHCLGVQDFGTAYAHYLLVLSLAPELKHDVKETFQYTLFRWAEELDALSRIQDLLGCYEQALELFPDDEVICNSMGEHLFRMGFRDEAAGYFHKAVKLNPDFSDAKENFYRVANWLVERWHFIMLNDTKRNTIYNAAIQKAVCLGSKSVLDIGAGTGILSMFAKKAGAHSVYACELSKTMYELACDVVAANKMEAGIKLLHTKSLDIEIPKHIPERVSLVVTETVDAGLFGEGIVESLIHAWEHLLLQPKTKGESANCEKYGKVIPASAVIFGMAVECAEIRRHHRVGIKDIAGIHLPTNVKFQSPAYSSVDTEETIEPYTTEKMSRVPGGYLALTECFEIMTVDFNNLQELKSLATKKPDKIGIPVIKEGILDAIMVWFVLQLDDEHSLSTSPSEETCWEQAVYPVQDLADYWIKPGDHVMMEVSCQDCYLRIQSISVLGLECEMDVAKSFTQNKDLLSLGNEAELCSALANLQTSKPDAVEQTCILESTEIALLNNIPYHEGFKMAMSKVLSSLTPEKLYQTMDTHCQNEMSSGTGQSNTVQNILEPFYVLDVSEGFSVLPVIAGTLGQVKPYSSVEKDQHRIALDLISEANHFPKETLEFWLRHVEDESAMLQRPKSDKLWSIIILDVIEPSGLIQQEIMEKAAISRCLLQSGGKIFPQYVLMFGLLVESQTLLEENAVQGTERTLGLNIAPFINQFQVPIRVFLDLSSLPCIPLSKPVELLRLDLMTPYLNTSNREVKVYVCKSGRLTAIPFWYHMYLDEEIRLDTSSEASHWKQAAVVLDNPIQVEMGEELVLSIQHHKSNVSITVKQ

[5] = molecular target: T2, Histone-arginine methyltransferase CARM1 (Homo sapiens, UniProt Q86X55); assay: Selectivity interaction (Western blot assay (PRMT4 dependent BAF155 asymmetric arginine dimethylation)) EUB0000236b CARM1
T2 sequence (Q86X55 whole entry): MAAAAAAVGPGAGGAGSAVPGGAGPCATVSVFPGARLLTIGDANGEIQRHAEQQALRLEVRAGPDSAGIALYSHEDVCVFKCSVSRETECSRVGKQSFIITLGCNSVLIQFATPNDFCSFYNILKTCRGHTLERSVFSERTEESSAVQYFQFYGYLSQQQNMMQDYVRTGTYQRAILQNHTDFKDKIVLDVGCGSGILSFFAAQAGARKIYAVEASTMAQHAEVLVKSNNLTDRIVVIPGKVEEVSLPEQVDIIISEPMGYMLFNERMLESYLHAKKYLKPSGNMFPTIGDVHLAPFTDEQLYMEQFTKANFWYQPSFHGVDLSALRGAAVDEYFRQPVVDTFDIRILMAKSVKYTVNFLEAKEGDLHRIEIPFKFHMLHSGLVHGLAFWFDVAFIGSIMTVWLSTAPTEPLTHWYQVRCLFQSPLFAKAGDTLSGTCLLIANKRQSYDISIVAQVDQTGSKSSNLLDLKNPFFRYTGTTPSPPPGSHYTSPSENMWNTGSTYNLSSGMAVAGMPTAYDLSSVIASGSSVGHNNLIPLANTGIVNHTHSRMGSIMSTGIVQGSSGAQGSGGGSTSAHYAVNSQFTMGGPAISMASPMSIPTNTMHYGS

[6] = molecular target: Histone-lysine N-methyltransferase, H3 lysine-79 specific (Homo sapiens, UniProt Q8TEK3); assay: Selectivity interaction (Western blot assay (DOT1L dependent H3K79 lysine dimethylation) ) EUB0000236b DOT1L
Sequence of Histone-lysine N-methyltransferase, H3 lysine-79 specific (Q8TEK3 whole entry): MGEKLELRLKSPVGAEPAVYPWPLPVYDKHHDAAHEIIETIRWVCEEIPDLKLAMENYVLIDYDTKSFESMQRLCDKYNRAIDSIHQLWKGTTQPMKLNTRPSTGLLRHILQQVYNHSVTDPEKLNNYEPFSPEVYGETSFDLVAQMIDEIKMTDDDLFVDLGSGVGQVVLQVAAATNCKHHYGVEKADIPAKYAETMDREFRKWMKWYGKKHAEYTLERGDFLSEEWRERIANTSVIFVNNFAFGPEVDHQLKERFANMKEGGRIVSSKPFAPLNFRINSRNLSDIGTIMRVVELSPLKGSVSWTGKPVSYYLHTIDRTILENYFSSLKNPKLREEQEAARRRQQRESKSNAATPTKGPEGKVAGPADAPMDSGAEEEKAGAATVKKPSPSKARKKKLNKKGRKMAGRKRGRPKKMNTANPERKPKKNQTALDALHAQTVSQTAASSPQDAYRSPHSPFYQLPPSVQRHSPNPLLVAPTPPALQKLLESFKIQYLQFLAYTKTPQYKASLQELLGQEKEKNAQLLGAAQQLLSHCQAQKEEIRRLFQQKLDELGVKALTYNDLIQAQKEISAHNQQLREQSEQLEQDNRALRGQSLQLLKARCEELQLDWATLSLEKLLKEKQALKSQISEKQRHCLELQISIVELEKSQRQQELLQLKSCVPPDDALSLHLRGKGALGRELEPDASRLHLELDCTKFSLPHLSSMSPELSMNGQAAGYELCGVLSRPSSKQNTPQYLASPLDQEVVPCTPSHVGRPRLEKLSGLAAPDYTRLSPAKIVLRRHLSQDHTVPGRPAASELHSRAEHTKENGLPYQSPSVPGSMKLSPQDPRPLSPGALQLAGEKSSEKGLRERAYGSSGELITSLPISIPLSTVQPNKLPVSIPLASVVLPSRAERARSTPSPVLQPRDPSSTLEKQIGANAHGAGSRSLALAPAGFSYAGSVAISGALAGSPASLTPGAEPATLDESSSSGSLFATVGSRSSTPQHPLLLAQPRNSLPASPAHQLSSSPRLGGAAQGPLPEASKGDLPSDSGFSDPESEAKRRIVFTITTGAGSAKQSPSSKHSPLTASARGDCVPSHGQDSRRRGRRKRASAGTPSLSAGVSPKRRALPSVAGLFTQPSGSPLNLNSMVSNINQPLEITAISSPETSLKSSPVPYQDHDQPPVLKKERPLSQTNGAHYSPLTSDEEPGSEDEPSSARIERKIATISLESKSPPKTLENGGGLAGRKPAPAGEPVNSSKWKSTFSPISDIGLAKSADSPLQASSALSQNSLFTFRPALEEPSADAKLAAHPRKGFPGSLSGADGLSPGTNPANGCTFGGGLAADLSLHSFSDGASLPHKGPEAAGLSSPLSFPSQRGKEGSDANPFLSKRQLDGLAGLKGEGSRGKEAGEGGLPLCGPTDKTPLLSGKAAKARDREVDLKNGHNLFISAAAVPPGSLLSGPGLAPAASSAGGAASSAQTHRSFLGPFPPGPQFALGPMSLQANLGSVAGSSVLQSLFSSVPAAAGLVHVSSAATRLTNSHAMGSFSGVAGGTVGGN

Sequence of Protein arginine N-methyltransferase 6 (Q96LA8 whole entry): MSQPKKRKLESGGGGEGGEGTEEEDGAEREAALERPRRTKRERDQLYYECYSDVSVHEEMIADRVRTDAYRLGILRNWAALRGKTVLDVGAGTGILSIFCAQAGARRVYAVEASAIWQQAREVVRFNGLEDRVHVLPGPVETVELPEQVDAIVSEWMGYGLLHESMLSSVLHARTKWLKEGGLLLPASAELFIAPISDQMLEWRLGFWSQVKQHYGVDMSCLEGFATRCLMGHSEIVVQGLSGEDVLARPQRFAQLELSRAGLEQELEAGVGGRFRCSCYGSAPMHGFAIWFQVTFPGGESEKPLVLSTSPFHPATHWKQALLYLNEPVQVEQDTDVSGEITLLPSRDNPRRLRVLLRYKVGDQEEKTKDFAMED
Sequence of Protein arginine N-methyltransferase 5 (O14744 whole entry): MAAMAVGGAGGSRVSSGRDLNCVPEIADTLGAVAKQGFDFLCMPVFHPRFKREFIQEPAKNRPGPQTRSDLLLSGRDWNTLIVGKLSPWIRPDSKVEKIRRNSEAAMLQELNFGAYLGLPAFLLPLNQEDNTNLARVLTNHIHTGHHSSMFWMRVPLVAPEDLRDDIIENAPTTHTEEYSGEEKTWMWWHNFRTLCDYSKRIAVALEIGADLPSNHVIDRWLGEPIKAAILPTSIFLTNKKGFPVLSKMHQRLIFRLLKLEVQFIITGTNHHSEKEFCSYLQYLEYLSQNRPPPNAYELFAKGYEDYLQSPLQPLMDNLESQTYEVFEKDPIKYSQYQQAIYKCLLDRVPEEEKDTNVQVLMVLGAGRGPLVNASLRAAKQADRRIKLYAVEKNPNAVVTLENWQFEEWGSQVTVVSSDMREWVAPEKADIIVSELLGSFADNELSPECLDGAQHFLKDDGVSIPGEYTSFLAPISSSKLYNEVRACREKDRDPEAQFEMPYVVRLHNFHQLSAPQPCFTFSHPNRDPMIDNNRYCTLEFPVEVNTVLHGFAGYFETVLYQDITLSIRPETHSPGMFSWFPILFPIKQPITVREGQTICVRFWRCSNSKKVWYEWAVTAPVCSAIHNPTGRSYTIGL
Sequence of Protein arginine N-methyltransferase 1 (Q99873 whole entry): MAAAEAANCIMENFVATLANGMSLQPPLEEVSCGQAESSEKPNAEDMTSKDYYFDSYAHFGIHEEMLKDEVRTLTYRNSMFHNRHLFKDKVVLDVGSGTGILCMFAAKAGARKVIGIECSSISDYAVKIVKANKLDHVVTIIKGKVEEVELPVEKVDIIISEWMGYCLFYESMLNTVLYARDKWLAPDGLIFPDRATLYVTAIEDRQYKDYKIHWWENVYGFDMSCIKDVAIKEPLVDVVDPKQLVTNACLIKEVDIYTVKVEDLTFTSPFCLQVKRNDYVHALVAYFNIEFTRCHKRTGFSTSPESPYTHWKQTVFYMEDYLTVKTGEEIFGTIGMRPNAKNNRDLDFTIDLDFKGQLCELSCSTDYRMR

EC50 [1]: > 5 nM
EC50 [2]: > 5 nM
EC50 [3]: > 5 nM
EC50 [4]: > 5 nM
EC50 [5]: > 5 nM
EC50 [6]: > 5 nM
SMILES: CC1=C(C)C(=O)C(C(C)(C)CC(=O)N(CCCCSC[C@H]2O[C@@H](n3cnc4c(N)ncnc43)[C@@H]3OC(C)(C)O[C@@H]32)Cc2cccc(-c3ccc(Cl)cc3)c2)=C(C)C1=O
